In the NIST ThermoML archive (doi:10.1016/j.jct.2013.09.024):

Assay: xn = mol fraction of the nth substance listed
Conditions: Liquid, Vibrating tube method

CC1(C)C(=O)[C@]2(C)CC[C@H]1C2 [(-)-fenchone] + CCO
mass density [kg/m3]
Conditions | 101 kPa | 20000 kPa | 25000 kPa | 30000 kPa | 35000 kPa | 40000 kPa
283.15 K, x1 = 0.0481 | 817.48 | – | – | – | – | –
283.15 K, x1 = 0.051 | – | 833.5 | 837 | 840.3 | 843.4 | 846.5
283.15 K, x1 = 0.0985 | 834.96 | – | – | – | – | –
283.15 K, x1 = 0.0992 | – | 849.7 | 853.1 | 856.3 | 859.4 | 862.5
283.15 K, x1 = 0.199 | – | 876.6 | 879.9 | 883 | 886 | 889
283.15 K, x1 = 0.2002 | 862.89 | – | – | – | – | –
283.15 K, x1 = 0.3002 | 883.74 | – | – | – | – | –
283.15 K, x1 = 0.301 | – | 897.5 | 900.6 | 903.7 | 906.6 | 909.5
283.15 K, x1 = 0.3968 | – | 913 | 916.1 | 919.1 | 922 | 924.8
283.15 K, x1 = 0.4031 | 900.59 | – | – | – | – | –
283.15 K, x1 = 0.4976 | – | 926.2 | 929.2 | 932.2 | 935 | 937.8
283.15 K, x1 = 0.5012 | 913.56 | – | – | – | – | –
283.15 K, x1 = 0.5924 | – | 936.5 | 939.4 | 942.3 | 945.2 | 947.9
283.15 K, x1 = 0.5976 | 924.09 | – | – | – | – | –
283.15 K, x1 = 0.6956 | – | 945.8 | 948.7 | 951.6 | 954.4 | 957.1
283.15 K, x1 = 0.697 | 933.16 | – | – | – | – | –
283.15 K, x1 = 0.7897 | 940.31 | – | – | – | – | –
283.15 K, x1 = 0.7942 | – | 953.4 | 956.3 | 959.1 | 961.9 | 964.6
283.15 K, x1 = 0.8929 | – | 959.7 | 962.6 | 965.5 | 968.2 | 970.9
283.15 K, x1 = 0.899 | 947.57 | – | – | – | – | –
283.15 K, x1 = 0.9454 | – | 962.8 | 965.7 | 968.5 | 971.2 | 973.8
283.15 K, x1 = 0.9486 | 950.46 | – | – | – | – | –
283.15 K, x1 = 1 | 953.27 | 965.6 | 968.5 | 971.3 | 974 | 976.6
298.15 K, x1 = 0.0481 | 804.6 | – | – | – | – | –
298.15 K, x1 = 0.051 | – | 822 | 825.6 | 829.1 | 832.5 | 835.7
298.15 K, x1 = 0.0985 | 822.02 | – | – | – | – | –
298.15 K, x1 = 0.0992 | – | 838 | 841.6 | 845 | 848.3 | 851.5
298.15 K, x1 = 0.199 | – | 864.9 | 868.3 | 871.7 | 874.8 | 877.9
298.15 K, x1 = 0.2002 | 849.9 | – | – | – | – | –
298.15 K, x1 = 0.3002 | 870.72 | – | – | – | – | –
298.15 K, x1 = 0.301 | – | 885.7 | 889.1 | 892.3 | 895.4 | 898.4
298.15 K, x1 = 0.3968 | – | 901.1 | 904.4 | 907.6 | 910.6 | 913.6
298.15 K, x1 = 0.4031 | 887.59 | – | – | – | – | –
298.15 K, x1 = 0.4976 | – | 914.3 | 917.6 | 920.7 | 923.7 | 926.7
298.15 K, x1 = 0.5012 | 900.59 | – | – | – | – | –
298.15 K, x1 = 0.5924 | – | 924.6 | 927.8 | 930.9 | 933.9 | 936.7
298.15 K, x1 = 0.5976 | 911.15 | – | – | – | – | –
298.15 K, x1 = 0.6956 | – | 934 | 937.1 | 940.2 | 943.2 | 946
298.15 K, x1 = 0.697 | 920.28 | – | – | – | – | –
298.15 K, x1 = 0.7897 | 927.48 | – | – | – | – | –
298.15 K, x1 = 0.7942 | – | 941.6 | 944.7 | 947.7 | 950.6 | 953.5
298.15 K, x1 = 0.8929 | – | 948.1 | 951.1 | 954.1 | 957 | 959.8
298.15 K, x1 = 0.899 | 934.83 | – | – | – | – | –
298.15 K, x1 = 0.9454 | – | 951.2 | 954.2 | 957.2 | 960.1 | 962.9
298.15 K, x1 = 0.9486 | 937.77 | – | – | – | – | –
298.15 K, x1 = 1 | 940.67 | 954 | 957.1 | 960 | 962.9 | 965.7
